Key:
Assay type in all cases: in vivo, mouse (male Balb/c)
sweat gland = assay: Sweating (activated sweat glands, AUC) during subcutaneous continuous administration (osmotic pump); conditions: for sweating: AUC of activated sweat glands
Procedure: (§1) Male Balb/c mice were used in the test.
The compound A was dissolved in physiological saline to a concentration of 0.625, 1.25, 2.5, 5.0, 10 or 20 mg/200 μl, and filled each pump (Alzet mini-osmotic pump 2001D, 8 μl/h, 1 day; DURECT Corporation) with about 200 μl portions It means, that is, each pump releases at a rate of 0.025, 0.05, 0.1, 0.2, 0.4 or 0.8 mg compound A/h, respectively. About 5 mm of dorsal epidermis of a mouse anesthetized with diethyl ether was incised, the osmotic pump already filled with the compound A was subcutaneously implanted, and then the skin was stitched. Secreted amounts of salivary and tear fluid and sweating were periodically measured from just before the implantation of pump until 32 hours after the administration. The ornithine decarboxylase activity was measured 10 hours after the implantation. […]
The footpad of right hind paw of a mouse anesthetized with diethyl ether was wiped with absorbent cotton, and then 20 μl of each of 5 mg/ml iodine-ethanol solution and 50 mg/ml starch-mineral oil suspension was applied thereto. The number of black spots on footpad was counted and used as the number of activated sweat glands. In the case of the subcutaneous bolus administration test, the number of activated sweat glands 10 minutes after the administration of compound A was measured. In the case of the subcutaneous continuous administration, area under the number of activated sweat glands-versus-time curve (AUC) was calculated.
(§2) All of the test results were expressed as fold increases of the reactions of the drug-administered group versus those of the vehicle-administered group, and comparison between the drug-administered groups and the vehicle-administered group was carried out using Dunnett's t-test. P<0.05 was considered significant. Results

lacrimal gland = assay: Tear fluid secretion during subcutaneous continuous administration (osmotic pump); conditions: mice; for Tear fluid: AUC of secreted amount
Procedure: as §1
(§3) The compound A was dissolved in physiological saline to a concentration of 0.625, 1.25, 2.5, 5.0, 10 or 20 mg/200 μl, and filled each pump (Alzet mini-osmotic pump 2001D, 8 μl/h, 1 day; DURECT Corporation) with about 200 μl portions It means, that is, each pump releases at a rate of 0.025, 0.05, 0.1, 0.2, 0.4 or 0.8 mg compound A/h, respectively. About 5 mm of dorsal epidermis of a mouse anesthetized with diethyl ether was incised, the osmotic pump already filled with the compound A was subcutaneously implanted, and then the skin was stitched. Secreted amounts of salivary and tear fluid and sweating were periodically measured from just before the implantation of pump until 32 hours after the administration. The ornithine decarboxylase activity was measured 10 hours after the implantation.
(§4) Pilocarpine was dissolved in physiological saline to a concentration of 0.039, 0.078, 0.16 or 0.31 mg/200 μl, or cevimeline to a concentration of 0.16, 0.31, 0.63 or 1.3 mg/200 μl, and filled the osmotic pump (Alzet mini-osmotic pump 2001 D, 8 μl/h, 1 day; DURECT Corporation) with about 200 μl portions. It means, that is, each pump releases at a rate of 0.00156, 0.00312, 0.0064 or 0.0124 mg/h (pilocarpine) or 0.0064, 0.0124, 0.0252 or 0.05 mg/h (cevimeline). About 5 mm of dorsal epidermis of a mouse anesthetized with diethyl ether was incised, the osmotic pump already filled with pilocarpine or cevimeline was subcutaneously implanted, and then the skin was stitched. Secreted amounts of salivary and tear fluid and sweating were periodically measured from just before the implantation of pump until 32 hours after the administration. The ornithine decarboxylase activity was measured 10 hours after the implantation.
The mouth of a mouse was wiped with a cotton ball whose weight had been measured in advance, and the incremental weight was used as the amount of salivary fluid. Also at the same time, a thread for tear fluid measurement (Zone Quick; Menicon) used on the Schirmer test was inserted into the lower eyelid conjunctival sac, and the length of colored part was measured and used as the amount of tear fluid. From the measurement results, area under the secreted amount-versus-time curve (AUC) was calculated.
as §2

[1] = system: ornithine decarboxylase (ODC) activity of parotid salivary gland; assay: Ornithine decarboxylase activity of parotid salivary gland, subcutaneous continuous administration; conditions: mice; for Glandular cell growth Salivary gland: ODC activity 10 hours after implantation
Procedure: as §1, §3, §4
(§5) Thus, it can be easily analogized that the ODC activity becomes a useful index of cell growth and function of the exocrine gland. Accordingly, the ability of each drug to activate glandular tissue was evaluated by measuring ODC activity of parotid salivary gland and extra-orbital lacrimal gland.
(§6) The amount of ^14CO2 formed from L-^14C-ornithine was used as the index of ODC activity.
(§7) A mouse anesthetized with diethyl ether was sacrificed by bleeding, and left and right parotid salivary glands and extra-orbital lacrimal glands were isolated. After removing the attached connective tissue and fat, the isolated glandular tissues homogenized in 1.5 ml of a homogenate buffer (25 mM Tris-HCl buffer (pH 7.4) containing 0.1 mM ethylenediaminetetraacetic acid, 0.4 mM pyridoxal phosphate, 5 mM dithiothreitol and 0.1% Brij 35®) using a Potter type homogenizer and then centrifuged at 4° C., 15,000 g for 30 minutes, and the supernatant was used as the enzyme fraction. Reaction of the enzyme and substrate was carried out by adding 100 μl of a substrate solution (the homogenate buffer containing 300 μM DL-ornithine and 5 μCi L-^14C-ornithine) to 900 μl of the enzyme liquid whose protein concentration had been adjusted to 2.5 mg/ml and incubating at 37° C. for 1 hour in a sealed tube, and the reaction was terminated by the addition of 100 μl of 2 M H2SO4. The ^14CO2 generated by the reaction was captured by 150 μl of 1 N NaOH soaked in a glass filter. Radioactivity of the ^14CO2 captured on the glass filter was detected using a liquid scintillation counter. The enzyme activity (pmol ^14CO2/mg protein/hour) was calculated from the measured results.
as §2

[2] = system: ornithine decarboxylase (ODC) activity of extra-orbital lacrimal gland; assay: Ornithine decarboxylase activity of extra-orbital lacrimal gland, subcutaneous continuous administration; conditions: mice; for Glandular cell growth Lacrimal gland: ODC activity 10 hours after implantation
Procedure: as §1, §3, §4, §5, §6, §7, §2

[3] = mice, s.c. continuous administration
[4] = s.c. osmotic pump 1.25 mg (0.05 mg/h)
[5] = s.c. osmotic pump 2.5 mg (0.1 mg/h)
[6] = s.c. osmotic pump 5 mg (0.2 mg/h)
[7] = s.c. osmotic pump 10 mg (0.4 mg/h)
[8] = male, Balb/c, mouse, in vivo, sc
[9] = s.c. osmotic pump 0.16 mg (0.0064 mg/h)
[10] = s.c. osmotic pump 0.31 mg (0.0124 mg/h)
[11] = s.c. osmotic pump 0.63 mg (0.0252 mg/h)
[12] = s.c. osmotic pump 1.25 (0.05 mg/h)

C=C1CC2(CCN(C)CC2)O[C@H]1C [compound A, (−)-(S)-2,8-dimethyl-3-methylene-1-oxa-8-azaspiro[4.5]decane]
dose at which sweating acceleration action was found (sweat gland; [3]): 20 mg | sweating acceleration dose relative to dose for secretion acceleration (sweat gland; [3]): 8 times | dose up to which sweating acceleration action was not found (sweat gland; mice, s.c. continuous administration, throughout the test period): 10 mg | sweating (sweat gland; mice, s.c. osmotic pump 0.63 mg (0.025 mg/h)): 0.85 ± 0.06 fold increase vs. the vehicle group | sweating (sweat gland; mice, s.c. osmotic pump 1.25 mg (0.05 mg/h)): 0.84 ± 0.06 fold increase vs. the vehicle group | sweating (sweat gland; mice, s.c. osmotic pump 2.5 mg (0.1 mg/h)): 0.89 ± 0.05 fold increase vs. the vehicle group | sweating (sweat gland; mice, s.c. osmotic pump 5 mg (0.2 mg/h)): 0.88 ± 0.05 fold increase vs. the vehicle group | sweating (sweat gland; mice, s.c. osmotic pump 10 mg (0.4 mg/h)): 0.90 ± 0.04 fold increase vs. the vehicle group | sweating (sweat gland; mice, s.c. osmotic pump 20 mg (0.8 mg/h)): 1.7 ± 0.07 fold increase vs. the vehicle group | dose at which tear fluid secretion acceleration action reached maximum (lacrimal gland; s.c. continuous administration): 5 mg | dose showing statistically significant tear fluid secretion acceleration (lacrimal gland; s.c. continuous administration, cumulative quantity vs vehicle group): ≥ 2.5 mg | Tear fluid (lacrimal gland; s.c. osmotic pump 0.63 mg (0.025 mg/h)): 1.3 ± 0.11 fold increase vs. the vehicle group | Tear fluid (lacrimal gland; [4]): 1.3 ± 0.011 fold increase vs. the vehicle group | Tear fluid (lacrimal gland; [5]): 1.9 ± 0.10 fold increase vs. the vehicle group | Tear fluid (lacrimal gland; [6]): 2.3 ± 0.08 fold increase vs. the vehicle group | Tear fluid (lacrimal gland; [7]): 1.6 ± 0.08 fold increase vs. the vehicle group | Glandular cell growth Salivary gland [1, 4]: 1.56 ± 0.33 fold increase vs. the vehicle group | Glandular cell growth Salivary gland [1, 5]: 6.9 ± 2.3 fold increase vs. the vehicle group | Glandular cell growth Salivary gland [1, 6]: 9.6 ± 1.8 fold increase vs. the vehicle group | Glandular cell growth Salivary gland [1, 7]: 9.8 ± 2.6 fold increase vs. the vehicle group | Glandular cell growth Lacrimal gland [2, 4]: 3.3 ± 1.2 fold increase vs. the vehicle group | Glandular cell growth Lacrimal gland [2, 5]: 6.7 ± 0.90 fold increase vs. the vehicle group | Glandular cell growth Lacrimal gland [2, 6]: 9.2 ± 1.4 fold increase vs. the vehicle group | Glandular cell growth Lacrimal gland [2, 7]: 7.1 ± 1.2 fold increase vs. the vehicle group

CC[C@@H]1C(=O)OC[C@@H]1Cc1cncn1C [pilocarpine]
dose at which sweating acceleration action was found (sweat gland; [8]): 0.31 mg | Tear fluid (lacrimal gland; s.c. osmotic pump 0.039 mg (0.00156 mg/h)): 0.81 ± 0.02 fold increase vs. vehicle group | Tear fluid (lacrimal gland; s.c. osmotic pump 0.078 mg (0.00312 mg/h)): 1.1 ± 0.13 fold increase vs. vehicle group | Tear fluid (lacrimal gland; [9]): 1.1 ± 0.14 fold increase vs. vehicle group | Tear fluid (lacrimal gland; [10]): 1.1 ± 0.12 fold increase vs. vehicle group | Glandular cell growth Salivary gland [1, 9]: 0.42 ± 0.06 fold increase vs. vehicle group | Glandular cell growth Salivary gland [1, 10]: 1.1 ± 0.20 fold increase vs. vehicle group | dose at which ODC activity increasing action of lacrimal gland cell was observed ([2]; s.c. continuous administration): 0.31 mg | Glandular cell growth Lacrimal gland [2, 9]: 1.4 ± 0.33 fold increase vs. vehicle group | Glandular cell growth Lacrimal gland [2, 10]: 2.0 ± 0.28 fold increase vs. vehicle group

CC1OC2(CS1)CN1CCC2CC1 (stereo not drawn) [cevimeline]
dose at which sweating acceleration action was found (sweat gland; [8]): 1.25 mg | sweating acceleration dose relative to dose for secretion acceleration (sweat gland; [8]): 2 times | Tear fluid (lacrimal gland; [9]): 1.3 ± 0.05 fold increase vs. the solvent group | Tear fluid (lacrimal gland; [10]): 1.1 ± 0.09 fold increase vs. the solvent group | Tear fluid (lacrimal gland; [11]): 1.4 ± 0.18 fold increase vs. the solvent group | Tear fluid (lacrimal gland; [12]): 1.3 ± 0.04 fold increase vs. the solvent group | glandular cell ODC activity acceleration action ([1]; s.c. continuous administration): not confirmed even at 1.25 mg | Glandular cell growth Salivary gland [1, 11]: 0.87 ± 0.05 fold increase vs. the solvent group | Glandular cell growth Salivary gland [1, 12]: 0.45 ± 0.12 fold increase vs. the solvent group | Glandular cell growth Lacrimal gland [2, 11]: 1.4 ± 0.28 fold increase vs. the solvent group | Glandular cell growth Lacrimal gland [2, 12]: 1.3 ± 0.70 fold increase vs. the solvent group

From patent publication US20080131511A1, “Pharmaceutical Composition for Treatment of Tear and Salivary Fluid Drying” (Astellas Pharma, Inc., priority 2004, published 2008)
